Results on eleven compounds are retold here after patent publication US8771665B2 (Cocrystal Discovery, Inc., priority 2010, dated 2014).

SMILES strings stand for the structures. Bounds are passed on as bounds.

For the assay, the target named is T1, HCV1b NS5B polymerase delta 21 (Hepatitis C virus genotype 1b, UniProt P26663).
T1 construct: purified HCV1b NS5B polymerase delta 21
As to the kind of experiment: RNA-Dependent RNA HCV NS5B (Polymerase) Assay and IC50 Determination. The assay is classed as biochemical. Here is the method:
RNA-Dependent RNA HCV NS5B (Polymerase) Assay and IC50 Determination
In vitro RNA-dependent RNA polymerase activity was determined in a reaction mixture (50 μL) containing 50 mM Tris-HCl, pH 7.5, 5 mM MgCl2, 1 mM dithiothreitol, 0.5% Triton® X-100, 10 μM of UTP, 0.1-0.5 μCi of α-^32P UTP (Perkin Elmer Life Sciences), 1 μg of polyA:U16 (Midland Oligo), and 0.6 μg of purified HCV1b NS5B polymerase delta 21. Different concentrations of compounds were added to the reaction mixtures. The reaction was carried out at RT (23° C.) for 60 min and then stopped by the addition of 100 μL of 50 mM EDTA. The reaction mixtures were filtered through either a DE81 membrane or a positively charged nylon membrane, and the membranes were then extensively washed with 30 mM sodium citrate, pH 7.0 and 300 mM NaCl. The radiolabeled RNA products were quantitated using a Storm™ Phosphorlmager™ (GE Life Sciences). IC50 values were calculated using GraFit 6 and GraphPad Prism 5 from triplicate assays.

T1 sequence (P26663 2420-2989): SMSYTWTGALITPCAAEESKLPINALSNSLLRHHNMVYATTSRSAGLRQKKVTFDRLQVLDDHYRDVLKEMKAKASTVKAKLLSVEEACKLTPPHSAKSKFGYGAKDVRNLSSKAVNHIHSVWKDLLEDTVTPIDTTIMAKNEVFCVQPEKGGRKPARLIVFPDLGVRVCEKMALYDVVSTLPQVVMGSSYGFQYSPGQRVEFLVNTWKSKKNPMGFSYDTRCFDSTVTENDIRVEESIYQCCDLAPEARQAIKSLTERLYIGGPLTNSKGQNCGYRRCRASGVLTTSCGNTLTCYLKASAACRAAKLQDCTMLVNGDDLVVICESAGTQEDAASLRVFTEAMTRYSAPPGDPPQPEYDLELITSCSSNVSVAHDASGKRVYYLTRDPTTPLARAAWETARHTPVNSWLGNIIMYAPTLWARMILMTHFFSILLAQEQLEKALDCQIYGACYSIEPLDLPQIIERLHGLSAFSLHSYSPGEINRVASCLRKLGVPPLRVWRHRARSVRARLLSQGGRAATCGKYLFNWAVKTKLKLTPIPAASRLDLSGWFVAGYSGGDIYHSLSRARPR

Usually IC50 stands for the point on the concentration scale where inhibition reaches its midpoint. Low readings indicate higher potency, high ones lower potency. `CCN1CCC(c2cc(-c3ccc(NC(=O)c4cncs4)cc3)sc2C(=O)O)=C(C2CCC(C)CC2)C1` (centres unmarked) [Example 050, 3-[1-Ethyl-5-(4-methyl-cyclohexyl)-1,2,3,6-tetrahydro-pyridin-4-yl]-5-{4-[(thiazole-5-carbonyl)-amino]-phenyl}-thiophene-2-carboxylic acid] had an IC50 of 3 to 10 µM. Consider `CC1CCC(C2=C(c3cc(-c4ccccc4)sc3C(=O)O)CCNC2)CC1` (centres unmarked) [Example 040, 3-[5-(4-Methyl-cyclohexyl)-1,2,3,6-tetrahydro-pyridin-4-yl]-5-phenyl-thiophene-2-carboxylic acid], for which the IC50 is below 3 µM. As for `Cc1cc(C)n2nc(CCCN3CCC(c4cc(-c5ccccc5)sc4C(=O)O)=C(C4CCC(C)CC4)C3)nc2n1` (centres unmarked) [Example 091, 3-[1-[3-(5,7-Dimethyl-[1,2,4]triazolo[1,5-a]pyrimidin-2-yl)-propyl]-5-(4-methyl-cyclohexyl)-1,2,3,6-tetrahydro-pyridin-4-yl]-5-phenyl-thiophene-2-carboxylic acid], the figure is below 3 µM; as for `CCOC(=O)c1sc(-c2ccc(NC(=O)c3cscn3)cc2)cc1C1=C(C2CCC(C)CC2)CN(C)CC1` (centres unmarked) [Example 100, 3-[1-Methyl-5-(4-methyl-cyclohexyl)-1,2,3,6-tetrahydro-pyridin-4-yl]-5-{4-[(thiazole-4-carbonyl)-amino]-phenyl}-thiophene-2-carboxylic acid ethyl ester], above 10 µM. Regarding `CC1CCC(C2=C(c3cc(-c4ccccc4)sc3C(=O)O)CCN(C(=O)OC(C)(C)C)C2)CC1` (centres unmarked) [Example 037, 4-(2-Carboxy-5-phenyl-thiophen-3-yl)-5-(4-methyl-cyclohexyl)-3,6-dihydro-2H-pyridine-1-carboxylic acid tert-butyl ester], the concentration for half-maximal inhibition (IC50) was above 10 µM. As for `CC1CC=C(C2=C(c3cc(-c4ccc(NC(=O)c5nccs5)cc4)sc3C(=O)O)CCN(C)C2)CC1` (centres unmarked) [Example 069, 3-[1-Methyl-5-(4-methyl-cyclohex-1-enyl)-1,2,3,6-tetrahydro-pyridin-4-yl]-5-{4-[(thiazole-2-carbonyl)-amino]-phenyl}-thiophene-2-carboxylic acid], the figure is below 3 µM; as for `CC1CCC(C2=C(c3cc(-c4ccccc4)sc3C(=O)O)CCN(Cc3ccnc(Br)c3)C2)CC1` (centres unmarked) [Example 144, 3-[1-(2-Bromo-pyridin-4-ylmethyl)-5-(4-methyl-cyclohexyl)-1,2,3,6-tetrahydro-pyridin-4-yl]-5-phenyl-thiophene-2-carboxylic acid], 3 to 10 µM.

`CC1CCC(C2=C(c3cc(-c4ccccc4)sc3C(=O)O)CCN(Cc3nc4nc(C(C)C)cc(C(C)C)n4n3)C2)CC1` (centres unmarked) [Example 151, 3-[1-(5,7-Diisopropyl-[1,2,4]triazolo[1,5-a]pyrimidin-2-ylmethyl)-5-(4-methyl-cyclohexyl)-1,2,3,6-tetrahydro-pyridin-4-yl]-5-phenyl-thiophene-2-carboxylic acid] displayed an IC50 of 3 to 10 µM. As for `CC1CCC(C2=C(c3cc(-c4ccc(NC(=O)c5cscn5)c(F)c4)sc3C(=O)O)CCN(C)C2)CC1` (centres unmarked) [Example 059, 5-{3-Fluoro-4-[(thiazole-4-carbonyl)-amino]-phenyl}-3-[1-methyl-5-(4-methyl-cyclohexyl)-1,2,3,6-tetrahydro-pyridin-4-yl]-thiophene-2-carboxylic acid], the figure is below 3 µM. The result for `CC1CCC(C2=C(c3cc(C#CC4CC4)sc3C(=O)O)CCN(CCO)C2)CC1` (centres unmarked) [Example 138, 5-Cyclopropylethynyl-3-[1-(2-hydroxy-ethyl)-5-(4-methyl-cyclohexyl)-1,2,3,6-tetrahydro-pyridin-4-yl]-thiophene-2-carboxylic acid] reads below 3 µM; that for `CCN1CCC(c2cc(-c3ccc(NC(=O)c4cc[nH]n4)cc3)sc2C(=O)O)=C(C2CCC(C)CC2)C1` (centres unmarked) [Example 055, 3-[1-Ethyl-5-(4-methyl-cyclohexyl)-1,2,3,6-tetrahydro-pyridin-4-yl]-5-{4-[(1H-pyrazole-3-carbonyl)-amino]-phenyl}-thiophene-2-carboxylic acid], below 3 µM.
